Each structure is given as a SMILES string. “And” between values parts separate entries of the source, which are not always exact repeats. Equal values may be shown once. Toxic doses and inconclusive results are not listed.

The subject of this test is BDF1 mice, L1210 leukemia sc, survival T/C. Put plainly: NCI In Vivo Anticancer Drug Screen. Data for tumor model L1210 Leukemia (subcutaneous) in B6D2F1 (BDF1) mice. The note with it: endpoint: median survival time, higher = longer survival. A digest of the protocol:
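Expressed as T/C: measurement in compound-treated, tumor-bearing mice relative to vehicle-treated control mice, based on survival or tumor size.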

In the case of `CC(=O)OCC(=O)[C@@]1(O)CC[C@H]2[C@@H]3C[C@H](F)C4=CC(=O)CC[C@]4(C)[C@H]3[C@@H](O)C[C@@]21C`, the T/C is 100 % of control (dose: 8.4 mg/kg/injection, schedule: Q01DX Z (sc), vehicle: steriod suspending solution); 100 % of control (dose: 14.0 mg/kg/injection, schedule: Q01DX Z (sc), vehicle: steriod suspending solution); 111 % of control (dose: 23.0 mg/kg/injection, schedule: Q01DX Z (sc), vehicle: steriod suspending solution); 155 % of control (dose: 39.0 mg/kg/injection, schedule: Q01DX Z (sc), vehicle: steriod suspending solution); 155 % of control (dose: 65.0 mg/kg/injection, schedule: Q01DX Z (sc), vehicle: steriod suspending solution); 150 % of control (dose: 108.0 mg/kg/injection, schedule: Q01DX Z (sc), vehicle: steriod suspending solution). For the same compound, the T/C (dose: 180.0 mg/kg/injection, schedule: Q01DX Z (sc), vehicle: steriod suspending solution) is 161 % of control.

For `CN1c2c(nc(N)[nH]c2=O)NCC1CCNc1ccc(C(=O)NC(CCC(=O)O)C(=O)O)cc1` (configuration not stated), the T/C (dose: 6.25 mg/kg/injection, schedule: Q01DX012 (ip), vehicle: other) is 100 % of control; the T/C (dose: 12.5 mg/kg/injection, schedule: Q01DX012 (ip), vehicle: other) is 111 % of control; the T/C (dose: 25.0 mg/kg/injection, schedule: Q01DX012 (ip), vehicle: other) was 122 % of control; the T/C (dose: 50.0 mg/kg/injection, schedule: Q01DX012 (ip), vehicle: other) is 122 % of control.

As for `CC(=O)NC(CCC(=O)C=[N+]=N)C(=O)O` (configuration not stated), the T/C is, setting by setting: (dose: 0.07 mg/kg/injection, schedule: Q#A X Z (sc), vehicle: water) 100 % of control; (dose: 0.11 mg/kg/injection, schedule: Q#A X Z (sc), vehicle: water) 109 % of control; (dose: 0.14 mg/kg/injection, schedule: Q01DX Z (sc), vehicle: water) 95 % of control; (dose: 0.19 mg/kg/injection, schedule: Q01DX Z (sc), vehicle: water) 110 % of control; (dose: 0.19 mg/kg/injection, schedule: Q#A X Z (sc), vehicle: water) 109 % of control; (dose: 0.24 mg/kg/injection, schedule: Q01DX Z (sc), vehicle: water) 108 % of control. For the same compound, the T/C (dose: 0.31 mg/kg/injection, schedule: Q01DX Z (sc), vehicle: water) is 109 % of control and 110 % of control; the T/C (dose: 0.31 mg/kg/injection, schedule: Q#A X Z (sc), vehicle: water) was 122 % of control; the T/C (dose: 0.4 mg/kg/injection, schedule: Q01DX Z (sc), vehicle: water) was 116 % of control; the T/C (dose: 0.47 mg/kg/injection, schedule: Q01DX Z (sc), vehicle: water) is 120 % of control; the T/C (dose: 0.52 mg/kg/injection, schedule: Q01DX Z (sc), vehicle: water) is 109 % of control and 113 % of control; the T/C (dose: 0.52 mg/kg/injection, schedule: Q02DX Z (sc), vehicle: water) was 100 % of control. Moreover, the T/C runs as follows: (dose: 0.78 mg/kg/injection, schedule: Q01DX Z (sc), vehicle: water) 170 % of control; (dose: 0.86 mg/kg/injection, schedule: Q01DX Z (sc), vehicle: water) 155 % of control; (dose: 0.86 mg/kg/injection, schedule: Q02DX Z (sc), vehicle: water) 104 % of control; (dose: 0.86 mg/kg/injection, schedule: Q## X Z (sc), vehicle: water) 100 % of control; (dose: 1.3 mg/kg/injection, schedule: Q01DX Z (sc), vehicle: water) 160 % of control; (dose: 1.44 mg/kg/injection, schedule: Q01DX Z (sc), vehicle: water) 150 % of control. In addition, the T/C was 109 % of control (dose: 1.44 mg/kg/injection, schedule: Q02DX Z (sc), vehicle: water); 109 % of control (dose: 1.44 mg/kg/injection, schedule: Q## X Z (sc), vehicle: water); 150 % of control (dose: 2.16 mg/kg/injection, schedule: Q01DX Z (sc), vehicle: water); 104 % of control (dose: 2.4 mg/kg/injection, schedule: Q## X Z (sc), vehicle: water); 116 % of control (dose: 3.11 mg/kg/injection, schedule: Q01DX Z (sc), vehicle: water); 150 % of control (dose: 3.6 mg/kg/injection, schedule: Q01DX Z (sc), vehicle: water). The T/C is, setting by setting: (dose: 4.0 mg/kg/injection, schedule: Q02DX Z (sc), vehicle: water) 118 % of control; (dose: 4.0 mg/kg/injection, schedule: Q## X Z (sc), vehicle: water) 113 % of control; (dose: 5.18 mg/kg/injection, schedule: Q01DX Z (sc), vehicle: water) 116 % of control; (dose: 6.72 mg/kg/injection, schedule: Q02DX Z (sc), vehicle: water) 154 % of control; (dose: 6.72 mg/kg/injection, schedule: Q## X Z (sc), vehicle: water) 109 % of control; (dose: 8.64 mg/kg/injection, schedule: Q01DX Z (sc), vehicle: water) 100 % of control. The T/C was 120 % of control (dose: 10.0 mg/kg/injection, schedule: Q01DX Z (sc), vehicle: water); 110 % of control (dose: 10.0 mg/kg/injection, schedule: Q## X Z (sc), vehicle: water); 109 % of control (dose: 11.2 mg/kg/injection, schedule: Q## X Z (sc), vehicle: water); 104 % of control (dose: 14.4 mg/kg/injection, schedule: Q01DX Z (sc), vehicle: water); 120 % of control (dose: 17.0 mg/kg/injection, schedule: Q07DX Z (sc), vehicle: water); 110 % of control (dose: 17.0 mg/kg/injection, schedule: Q## X Z (sc), vehicle: water). Besides, the T/C runs as follows: (dose: 24.0 mg/kg/injection, schedule: Q01DX Z (sc), vehicle: water) 100 % of control; (dose: 28.0 mg/kg/injection, schedule: Q07DX Z (sc), vehicle: water) 120 % of control; (dose: 28.0 mg/kg/injection, schedule: Q## X Z (sc), vehicle: water) 115 % of control; (dose: 40.0 mg/kg/injection, schedule: Q01DX Z (sc), vehicle: water) 100 % of control; (dose: 47.0 mg/kg/injection, schedule: Q01DX001 (sc), vehicle: water) 115 % of control; (dose: 47.0 mg/kg/injection, schedule: Q07DX Z (sc), vehicle: water) 110 % of control. For the same compound, the T/C was 110 % of control and 120 % of control (dose: 47.0 mg/kg/injection, schedule: Q## X Z (sc), vehicle: water); 120 % of control (dose: 78.0 mg/kg/injection, schedule: Q01DX001 (sc), vehicle: water); 120 % of control (dose: 78.0 mg/kg/injection, schedule: Q07DX Z (sc), vehicle: water); 110 % of control and 120 % of control (dose: 78.0 mg/kg/injection, schedule: Q## X Z (sc), vehicle: water); 120 % of control (dose: 130.0 mg/kg/injection, schedule: Q01DX001 (sc), vehicle: water); 120 % of control (dose: 130.0 mg/kg/injection, schedule: Q07DX Z (sc), vehicle: water). Further, the T/C reads like this: (dose: 216.0 mg/kg/injection, schedule: Q07DX Z (sc), vehicle: water) 120 % of control; (dose: 216.0 mg/kg/injection, schedule: Q## X Z (sc), vehicle: water) 160 % of control; (dose: 360.0 mg/kg/injection, schedule: Q07DX Z (sc), vehicle: water) 120 % of control.

The values above are taken from PubChem BioAssay AID250 (DTP/NCI, 2004).
